Laboratory results as given in US20230159546A1, “NOVEL SPIROPYRROLIDINE DERIVED ANTIVIRAL AGENTS” (Enanta Pharmaceuticals, Inc., priority 2021, published 2023).

Biological target: SARS-CoV-2 3CL-protease (Severe acute respiratory syndrome coronavirus 2, UniProt P0DTD1)
Experiment: SARS-CoV-2 3C-like (3CL) protease fluorescence assay (FRET)
Format: biochemical
Conditions: recombinant SARS-CoV-2 3CL-protease 10 nM, 30 min preincubation at RT, duplicate; read-out: FRET IC50

SMILES	IC50
N#C[C@@H]1C[C@@]2(CN1C(=O)C(=O)NCC13CC4CC(CC(C4)C1)C3)C(=O)Nc1ccccc12 [Example 158]	< 0.1 µM
N#C[C@@H]1C[C@@]2(CN1C(=O)C(=O)NCCc1ccccc1)C(=O)Nc1ccccc12 [Example 159]	> 1 µM
N#C[C@@H]1C[C@@]2(CN1C(=O)C(=O)NCCCc1ccccc1)C(=O)Nc1ccccc12 [Example 160]	0.1 to 1 µM
N#C[C@@H]1C[C@@]2(CN1C(=O)C(=O)Nc1cc(C(F)(F)F)ccn1)C(=O)Nc1ccccc12 [Example 161]	> 1 µM
N#C[C@@H]1C[C@@]2(CN1C(=O)C(=O)Nc1ccc(C(F)(F)F)cn1)C(=O)Nc1ccccc12 [Example 162]	> 1 µM
Cc1ccc(NC(=O)C(=O)N2C[C@]3(C[C@H]2C#N)C(=O)Nc2ccccc23)nc1 [Example 163]	> 1 µM
N#C[C@@H]1C[C@@]2(CN1C(=O)C(=O)Nc1ccc(C(F)(F)F)nc1)C(=O)Nc1ccccc12 [Example 164]	> 1 µM
N#C[C@@H]1C[C@@]2(CN1C(=O)C(=O)Nc1cccnc1C(F)(F)F)C(=O)Nc1ccccc12 [Example 165]	> 1 µM
N#C[C@@H]1C[C@@]2(CN1C(=O)C(=O)Nc1cccc(C(F)(F)F)n1)C(=O)Nc1ccccc12 [Example 166]	> 1 µM
N#C[C@@H]1C[C@@]2(CN1C(=O)C(=O)Nc1ccnc(C(F)(F)F)c1)C(=O)Nc1ccccc12 [Example 167]	> 1 µM
Cc1cccc(NC(=O)C(=O)N2C[C@]3(C[C@H]2C#N)C(=O)Nc2ccccc23)n1 [Example 168]	> 1 µM
CC(=O)N[C@H]1CC[C@@H](NC(=O)C(=O)N2C[C@]3(C[C@H]2C#N)C(=O)Nc2ccccc23)CC1 [Example 169]	> 1 µM
N#C[C@@H]1C[C@@]2(CN1C(=O)CC(=O)N[C@@H]1CCC[C@@H]1O)C(=O)Nc1ccccc12 [Example 170]	> 1 µM
N#C[C@@H]1C[C@@]2(CN1C(=O)CC(=O)N[C@H]1CCC[C@@H]1O)C(=O)Nc1ccccc12 [Example 171]	> 1 µM
N#C[C@@H]1C[C@@]2(CN1C(=O)CC(=O)N[C@@H]1CCC[C@H]1O)C(=O)Nc1ccccc12 [Example 172]	> 1 µM
N#C[C@@H]1C[C@@]2(CN1C(=O)CC(=O)N[C@H]1CCC[C@H]1O)C(=O)Nc1ccccc12 [Example 173]	> 1 µM

SMILES	IC50
CC(C)(C)OC(=O)N[C@@H]1CC[C@H](NC(=O)C(=O)N2C[C@]3(C[C@H]2C#N)C(=O)Nc2ccccc23)C1 [Example 174]	> 1 µM
N#C[C@@H]1C[C@@]2(CN1C(=O)C(=O)NC1(c3ccccc3)CCCC1)C(=O)Nc1ccccc12 [Example 175]	< 0.1 µM
N#C[C@@H]1C[C@@]2(CN1C(=O)C(=O)Nc1cnccc1C(F)(F)F)C(=O)Nc1ccccc12 [Example 176]	> 1 µM
C[C@]1(O)CC[C@H](NC(=O)C(=O)N2C[C@]3(C[C@H]2C#N)C(=O)Nc2ccccc23)CC1 [Example 177]	> 1 µM
C[C@]1(O)CC[C@@H](NC(=O)C(=O)N2C[C@]3(C[C@H]2C#N)C(=O)Nc2ccccc23)CC1 [Example 178]	> 1 µM
CC1(NC(=O)C(=O)N2C[C@]3(C[C@H]2C#N)C(=O)Nc2ccccc23)CCCC1 [Example 179]	0.1 to 1 µM
N#C[C@@H]1C[C@@]2(CN1C(=O)CC(=O)N[C@H]1CC[C@H](O)C1)C(=O)Nc1ccccc12 [Example 180]	> 1 µM
N#C[C@@H]1C[C@@]2(CN1C(=O)CC(=O)N[C@@H]1CC[C@@H](O)C1)C(=O)Nc1ccccc12 [Example 181]	> 1 µM
N#C[C@@H]1C[C@@]2(CN1C(=O)CC(=O)N[C@H]1CC[C@@H](O)C1)C(=O)Nc1ccccc12 [Example 182]	> 1 µM
N#C[C@@H]1C[C@@]2(CN1C(=O)CC(=O)N[C@@H]1CC[C@H](O)C1)C(=O)Nc1ccccc12 [Example 183]	> 1 µM
CCCC(CCC)(CCC)NC(=O)C(=O)N1C[C@]2(C[C@H]1C#N)C(=O)Nc1ccccc12 [Example 185]	0.1 to 1 µM
N#C[C@@H]1C[C@@]2(CN1C(=O)C(=O)NCc1cc(F)c(F)cc1F)C(=O)Nc1ccccc12 [Example 186]	> 1 µM
N#C[C@@H]1C[C@@]2(CN1C(=O)C(=O)NCCc1cc(F)cc(F)c1F)C(=O)Nc1ccccc12 [Example 187]	> 1 µM
Cc1cccc(C)c1NC(CC(=O)N(C)[C@@H](CC(C)C)C(=O)N1C[C@]2(C[C@H]1C#N)C(=O)Nc1ccccc12)C(F)(F)F (stereo partly shown) [Example 198]	< 0.1 µM
N#C[C@@H]1C[C@@]2(CN1C(=O)C(=O)Nc1cncc(C(F)(F)F)c1)C(=O)Nc1ccccc12 [Example 199]	> 1 µM
